This is an account of results in ChEMBL document CHEMBL3988442, “University of Dundee, Small-Polar-MMV Screening Library” (2021).

Test [1] can be described thus: microbe, parasite or virus in culture. As to conditions: Mycobacterium tuberculosis, 72 h, read-out: pIC50 (converted).
A short description of test [2]: microbe, parasite or virus in culture. As to conditions: Mycobacterium tuberculosis, 96 h, read-out: pIC50 (converted).

In the case of `Cc1cc(C(=O)Nc2ccc3c(c2)CCCN3)on1`, the IC50 in test [1] was 150 µM; in test [2], > 501 µM.

Regarding `Cc1ccc(NC2CCCN(Cc3ccc(Cl)cc3)C2)nn1` (centres undefined), the IC50 in test [1] is 7.35 µM; in test [2], 6.67 µM.

On to `CNC(=O)NCCc1csc2ccccc12`, for which the IC50 in test [1] and in test [2] was > 50.1 µM throughout.

In the case of `CC[C@H](N)C(=O)N(C)CCOc1cccc(Cl)c1`, the IC50 in test [1] was 377 µM; in test [2] it was 263 µM.

Turning to `COc1cccc(-c2ccc(CNS(N)(=O)=O)cc2)c1`, the IC50 in test [1] was 159 µM; in test [2], 283 µM.

For `CC(C(=O)NCc1cccs1)S(=O)(=O)C1CCCC1` (centres undefined), the IC50 in test [1] was 164 µM; in test [2], > 501 µM.

In the case of `Cc1csc(N2CCN(C(=O)c3ccc(C)s3)CC2)n1`, the IC50 in test [1] is > 50.1 µM; in test [2] it was 15.5 µM.

As to `COCC(C)NC(=O)CNc1ccc(OC)c(Br)c1` (centres undefined), the IC50 was 172 µM in test [1] and 184 µM in test [2].

Turning to `COCc1ccc(C(=O)NCc2cccc(F)c2)o1`, the IC50 is 59.4 µM in test [1] and 35.8 µM in test [2].

Consider `COCc1cccc(C(=O)N2CCCC2)c1`, for which the IC50 in test [1] is 16.3 µM; in test [2], > 50.1 µM.

For the compound `FC(F)(F)c1ccnc(N2CCC(c3nccn3CC3CC3)CC2)n1`, the IC50 in test [1] was 44.6 µM; in test [2], 16.3 µM.

For the compound `CC(NCc1ccc(OCC(N)=O)cc1)c1ccc(Cl)cc1Cl` (centres undefined), the results for the IC50 in test [1] and in test [2] were 49 µM and 18.8 µM, respectively.

In the case of `Cc1cccnc1CN1CCOC(Cc2cccc3ccccc23)C1` (centres undefined), the IC50 in test [1] and in test [2] was > 50.1 µM in each case.

As for `CN(Cc1ccc2c(c1)OCO2)C(=O)Cc1cccs1`, the IC50 is 199 µM in test [1] and 239 µM in test [2].

`CN(Cc1c(F)cccc1Cl)S(=O)(=O)N1CCOCC1`: the IC50 in test [1] was 270 µM; in test [2], 269 µM.

As to `Cc1cccc(CN(CC(N)=O)Cc2ccccn2)c1`, the IC50 in test [1] is 194 µM; in test [2], > 501 µM.

As for `Cc1nc(C(=O)NCc2cccs2)ccc1C#N`, the IC50 in test [1] is 82.4 µM; in test [2], 64.4 µM.

With `CC(C)Oc1ccc(C(CN)N(C)C)cc1` (centres undefined), the results for the IC50 in test [1] and in test [2] were 133 µM and 225 µM, respectively.

As for `CN(C)S(=O)(=O)c1ccc(COC(=O)C2CC2)o1`, the IC50 in test [1] was > 501 µM; in test [2] it was 338 µM.

As for `COc1ccc(-c2noc(CN3CCN(c4cnccn4)CC3)n2)cc1`, the IC50 in test [1] is 47 µM; in test [2], 33.8 µM.

As for `COc1coc(CN2CCCC(CCc3ccccc3F)C2)cc1=O` (centres undefined), the IC50 in test [1] was 47.3 µM; in test [2], 13.3 µM.

On to `CCN1CCN(Cc2nc(-c3ccccc3)no2)CC1`, for which the IC50 in test [1] and in test [2] was > 501 µM throughout.

Consider `Cc1ccc2nc(C3CCCN3Cc3nnc(C)s3)[nH]c2c1` (centres undefined), for which the IC50 in test [1] and in test [2] was > 50.1 µM throughout.

In the case of `CC1CCN(S(=O)(=O)NC(C)C(C)C)CC1` (centres undefined), the IC50 in test [1] was 261 µM; in test [2] it was > 501 µM.

With `OCC1CCCN1c1cc(N2CCC(OC3CCCC3)CC2)ncn1` (centres undefined), the IC50 is 15.5 µM in test [1] and 13.8 µM in test [2].

In the case of `CN(C)c1ccc(CNC(=O)C2CCCO2)cc1` (centres undefined), the IC50 in test [1] is 219 µM; in test [2], 197 µM.

Take `CCCc1nn(Cc2csc(C(C)C)n2)c(=O)o1`: the IC50 in test [1] is 3.08 µM; in test [2], 20.4 µM.

Turning to `CCS(=O)(=O)c1ccc(CNc2ncccc2Cl)cc1`, the IC50 was 242 µM in test [1] and > 501 µM in test [2].

As for `COCCN1CCCN(C(=O)c2cc(Cl)c[nH]2)CC1`, the IC50 in test [1] was 195 µM; in test [2], > 501 µM.

As for `FC(F)Oc1ccccc1CN1CCCC(c2nccn2CC2CC2)C1` (centres undefined), the IC50 in test [1] and in test [2] was > 50.1 µM throughout.

Turning to `COCCCN(C)c1nc(-c2ccncc2)nc(C)c1C`, the IC50 in test [1] is 11.8 µM; in test [2] it was 6.84 µM.

Take `CCc1ccc(S(=O)(=O)N(C)CC(N)=O)s1`: the values for the IC50 in test [1] and in test [2] were 244 µM and > 501 µM, respectively.
